Assay results published in patent US7923554B2, “HIV inhibiting 1,2,4-triazin-6-one derivatives” (Janssen Pharmaceutica N.V., priority 2004, dated 2011).

Tested on: HIV-1
Assay: microbe, parasite or virus in culture
Conditions: Human immunodeficiency virus 1, MT4, read-out: pEC50 (-logEC50) (converted)
Experimental: A rapid, sensitive and automated assay procedure was used for the in vitro evaluation of anti-HIV agents. […] In these cells, engineered with GFP (and an HIV-specific promotor), ongoing HIV-infection was measured fluorometrically. Cytotoxicity is measured in the same cells, but engineered with GFP under a constitutional promotor. The infection (or inhibition thereof) of HIV infected cells and the fluorescence of mock-infected cells is assessed by the fluorescent GFP signal generated by the two above mentioned cell lines.

Structure (SMILES) | EC50 [nM]
Cc1cc(/C=C/C#N)cc(C)c1Oc1n[nH]c(=O)c(Nc2ccc(C#N)cc2)n1 [Compound 59] | 1.26
N#Cc1ccc(Nc2nc(Nc3c(F)cc(Br)cc3F)n[nH]c2=O)cc1 [Compound 10] | 0.316
Cc1cc(CCC#N)cc(C)c1Nc1nc(Nc2ccc(C#N)cc2)c(=O)n(CCO)n1 [Compound 14] | 0.316
Cc1cc(/C=C/C#N)cc(C)c1Oc1nc(Nc2ccc(C#N)cc2)c(=O)n(CC#N)n1 [Compound 61] | 1.26
Cc1cc(C)c(Nc2n[nH]c(=O)c(Nc3ccc(C#N)cc3)n2)c(C)c1 [Compound 23] | 0.794
Cc1cc(CCC#N)cc(C)c1Oc1nc(Nc2ccc(C#N)cc2)c(=O)n(CCO)n1 [Compound 70] | 0.794
C/C(=C\C#N)c1cc(C)c(Nc2n[nH]c(=O)c(Nc3ccc(C#N)cc3)n2)c(C)c1 [Compound 77] | 0.794
Cc1cc(CCC#N)cc(C)c1Oc1nc(Nc2ccc(C#N)cc2)c(=O)n(C)n1 [Compound 56] | 0.631
Cc1cc(C)c(Sc2nc(Nc3ccc(C#N)cc3)c(=O)n(C)n2)c(C)c1 [Compound 43] | 0.316
COc1cc(C)c(Nc2nc(Nc3ccc(C#N)cc3)c(=O)n(C)n2)c(C)c1 [Compound 35] | 10
N#C/C=C/c1cc(F)c(Nc2n[nH]c(=O)c(Nc3ccc(C#N)cc3)n2)c(F)c1 [Compound 38] | 0.126
Cc1cc(/C=C/C#N)cc(C)c1Nc1nc(Nc2ccc(C#N)cc2)nn(C)c1=O [Compound 28] | 3.98
Cc1cc(CCC#N)cc(C)c1Oc1n[nH]c(=O)c(Nc2ccc(C#N)cc2)n1 [Compound 3] | 0.631
COc1cc(CCC#N)cc(Cl)c1Nc1nc(Nc2ccc(C#N)cc2)c(=O)n(CCO)n1 [Compound 74] | 0.794
N#CCCc1cc(Br)c(Nc2n[nH]c(=O)c(Nc3ccc(C#N)cc3Br)n2)c(Br)c1 [Compound 49] | 0.316
N#CCCc1cc(Br)c(Nc2n[nH]c(=O)c(Nc3ccc(C#N)cc3)n2)c(Br)c1 [Compound 2] | 0.1
COc1cc(/C=C/C#N)cc(C)c1Nc1nc(Nc2ccc(C#N)cc2)c(=O)n(C)n1 [Compound 42] | 0.398
N#C/C=C/c1cc(Cl)c(Nc2n[nH]c(=O)c(Nc3ccc(C#N)cc3)n2)c(Cl)c1 [Compound 24] | 0.631
Cc1cc(CCC#N)cc(C)c1Nc1nc(Nc2ccc(C#N)cc2)c(=O)n(CC(N)=O)n1 [Compound 33] | 0.631
Cc1cc(/C=C/C#N)cc(C)c1Nc1nc(Nc2ccc(C#N)cc2)n[nH]c1=O [Compound 27] | 0.2
C/C(C#N)=C\c1cc(C)c(Nc2n[nH]c(=O)c(Nc3ccc(C#N)cc3)n2)c(C)c1 [Compound 68] | 1.2
Cc1cc(C)c(Nc2nc(Nc3ccc(C#N)cc3)nn(C)c2=O)c(C)c1 [Compound 18] | 12.6
Cc1cc(/C=C/C#N)cc(C)c1Oc1nc(Nc2ccc(C#N)cc2)c(=O)n(CCO)n1 [Compound 62] | 0.316
CCn1nc(Nc2c(Cl)cc(CCC#N)cc2OC)nc(Nc2ccc(C#N)cc2)c1=O [Compound 73] | 0.631
C/C(=C\C#N)c1cc(C)c(Nc2nc(Nc3ccc(C#N)cc3)c(=O)n(C)n2)c(C)c1 [Compound 78] | 0.794
Cn1nc(Nc2c(Cl)cc(CCC#N)cc2Br)nc(Nc2ccc(C#N)cc2)c1=O [Compound 21] | 1
N#C/C=C/c1cc(Cl)c(Nc2n[nH]c(=O)c(Nc3ccc(C#N)cc3)n2)c(Br)c1 [Compound 25] | 0.631

Structure (SMILES) | EC50 [nM]
N#CCCc1cc(Cl)c(Nc2n[nH]c(=O)c(Nc3ccc(C#N)cc3)n2)c(Br)c1 [Compound 19] | 6.31
Cc1cc(CCC#N)cc(C)c1Nc1nc(Nc2ccc(C#N)cc2)c(=O)n(C)n1 [Compound 9] | 0.501
Cc1cc(C)c(Sc2nc(Nc3ccc(C#N)cc3)nn(C)c2=O)c(C)c1 [Compound 22] | 15.8
Cc1cc(/C=C/C#N)cc(C)c1Nc1n[nH]c(=O)c(Nc2ccc(C#N)cc2)n1 [Compound 4] | 0.631
COc1cc(CCC#N)cc(Cl)c1Nc1nc(Nc2ccc(C#N)cc2)c(=O)n(CC#N)n1 [Compound 75] | 0.794
Cc1cc(C#N)cc(C)c1Oc1n[nH]c(=O)c(Nc2ccc(C#N)cc2)n1 [Compound 48] | 0.398
CCn1nc(Nc2c(C)cc(CCC#N)cc2C)nc(Nc2ccc(C#N)cc2)c1=O [Compound 37] | 0.126
CCn1nc(Nc2c(C)cc(/C=C/C#N)cc2C)nc(Nc2ccc(C#N)cc2)c1=O [Compound 54] | 75.9
N#CCCc1cc(Cl)c(Nc2n[nH]c(=O)c(Nc3ccc(C#N)cc3)n2)c(Cl)c1 [Compound 58] | 3.16
Cn1nc(Nc2c(Cl)cc(CCC#N)cc2Cl)nc(Nc2ccc(C#N)cc2)c1=O [Compound 17] | 1
Cc1cc(/C=C/C#N)cc(C)c1Oc1nc(Nc2ccc(C#N)cc2)c(=O)n(C)n1 [Compound 60] | 2.51
CCn1nc(Oc2c(C)cc(CCC#N)cc2C)nc(Nc2ccc(C#N)cc2)c1=O [Compound 69] | 0.891
Cc1cc(CCC#N)cc(C)c1Oc1nc(Nc2ccc(C#N)cc2)c(=O)n(CC#N)n1 [Compound 53] | 0.398
COc1cc(CCC#N)cc(C)c1Nc1n[nH]c(=O)c(Nc2ccc(C#N)cc2)n1 [Compound 39] | 0.1
COc1cc(CCC#N)cc(Cl)c1Nc1nc(Nc2ccc(C#N)cc2)c(=O)n(C)n1 [Compound 72] | 0.631
Cc1cc(C#N)cc(C)c1Nc1nc(Nc2ccc(C#N)cc2)c(=O)n(C)n1 [Compound 46] | 0.251
COc1cc(/C=C/C#N)cc(Cl)c1Nc1n[nH]c(=O)c(Nc2ccc(C#N)cc2)n1 [Compound 71] | 0.794
N#C/C=C/c1cc(Br)c(Nc2n[nH]c(=O)c(Nc3ccc(C#N)cc3)n2)c(Br)c1 [Compound 26] | 0.631
COc1cc(CCC#N)c(Br)cc1Nc1n[nH]c(=O)c(Nc2ccc(C#N)cc2)n1 [Compound 67] | 1.51
CCn1nc(Nc2c(C)cc(CCC#N)cc2OC)nc(Nc2ccc(C#N)cc2)c1=O [Compound 40] | 0.316
Cc1cc(C)c(Nc2nc(Nc3ccc(C#N)cc3)n[nH]c2=O)c(C)c1 [Compound 16] | 1
Cc1cc(C)c(Sc2nc(Nc3ccc(C#N)cc3)n[nH]c2=O)c(C)c1 [Compound 20] | 0.631
COc1cc(/C=C/C#N)cc(C)c1Nc1n[nH]c(=O)c(Nc2ccc(C#N)cc2)n1 [Compound 29] | 316
Cc1cc(C#N)cc(C)c1Oc1nc(Nc2ccc(C#N)cc2)c(=O)n(C)n1 [Compound 50] | 0.158
Cc1cc(CCC#N)cc(C)c1Nc1nc(Nc2ccc(C#N)cc2)c(=O)n(CC#N)n1 [Compound 31] | 0.316
COc1cc(CCC#N)cc(C)c1Nc1nc(Nc2ccc(C#N)cc2)c(=O)n(CCO)n1 [Compound 47] | 0.794

Tested on: not given
Assay: not given
Conditions: not given

Structure (SMILES) | melting point [°C]
N#CCCn1nc(Nc2c(F)cc(Br)cc2F)nc(Nc2ccc(C#N)cc2)c1=O [Compound 11] | 246 to 247
N#Cc1ccc(Nc2nc(Nc3c(F)cc(I)cc3F)n[nH]c2=O)cc1 [Compound 1] | 287 to 290
Cc1cc(CCC#N)cc(C)c1Oc1n[nH]c(=O)c(Nc2ccc(C#N)cc2)n1 [Compound 3] | 351 to 352
N#CCCc1cc(Br)c(Nc2n[nH]c(=O)c(Nc3ccc(C#N)cc3)n2)c(Br)c1 [Compound 2] | 339 to 340
Cc1cc(C)c(S(=O)(=O)c2n[nH]c(=O)c(Nc3ccc(C#N)cc3)n2)c(C)c1 [Compound 7] | 303 to 304
CCn1nc(Nc2c(C)cc(CCC#N)cc2C)nc(Nc2ccc(C#N)cc2)c1=O [Compound 15] | 243 to 245
Cc1cc(CCC#N)cc(C)c1Nc1nc(Nc2ccc(C#N)cc2)c(=O)n(C)n1 [Compound 9] | 317 to 320
Cc1cc(CCC#N)cc(C)c1Nc1nc(Nc2ccc(C#N)cc2)c(=O)n(CC#N)n1 | 243 to 246

Tested on: HIV-1
Assay: not given
Conditions: not given

Structure (SMILES) | pEC50 (-logEC50)
Cc1cc(CCC#N)cc(C)c1Nc1n[nH]c(=O)c(Nc2ccc(C#N)cc2)n1 [Compound 51] | 9.6
Cc1cc(C)c(Sc2n[nH]c(=O)c(Nc3ccc(C#N)cc3)n2)c(C)c1 [Compound 41] | 9.7
N#CCCn1nc(Nc2c(F)cc(Br)cc2F)nc(Nc2ccc(C#N)cc2)c1=O [Compound 11] | 9.1
Cn1nc(Nc2c(Br)cc(CCC#N)cc2Br)nc(Nc2ccc(C#N)cc2)c1=O [Compound 55] | 9
N#Cc1ccc(Nc2nc(Nc3c(F)cc(Br)cc3F)n[nH]c2=O)cc1 [Compound 30] | 9.2
N#Cc1ccc(Nc2nc(Nc3c(F)cc(I)cc3F)n[nH]c2=O)cc1 [Compound 1] | 9.5
Cc1cc(C)c(S(=O)(=O)c2n[nH]c(=O)c(Nc3ccc(C#N)cc3)n2)c(C)c1 [Compound 52] | 8.8
N#Cc1ccc(Nc2nc(Nc3c(F)cc(I)cc3F)n[nH]c2=O)cc1 [Compound 36] | 9.9
Cn1nc(Nc2c(Br)cc(CCC#N)cc2Br)nc(Nc2ccc(C#N)cc2)c1=O [Compound 8] | 10.0
Cc1cc(C)c(S(=O)(=O)c2n[nH]c(=O)c(Nc3ccc(C#N)cc3)n2)c(C)c1 [Compound 7] | 7.7
N#CCCn1nc(Nc2c(F)cc(Br)cc2F)nc(Nc2ccc(C#N)cc2)c1=O [Compound 34] | 8.5
CCn1nc(Nc2c(C)cc(CCC#N)cc2C)nc(Nc2ccc(C#N)cc2)c1=O [Compound 15] | 9.7
Cc1cc(C)c(Sc2n[nH]c(=O)c(Nc3ccc(C#N)cc3)n2)c(C)c1 [Compound 6] | 7.8
Cc1cc(CCC#N)cc(C)c1Nc1n[nH]c(=O)c(Nc2ccc(C#N)cc2)n1 [Compound 32] | 8.9
Cc1cc(CCC#N)cc(C)c1Nc1n[nH]c(=O)c(Nc2ccc(C#N)cc2)n1 [Compound 5] | 9.6
COc1cc(CCC#N)c(Br)cc1Nc1n[nH]c(=O)c(Nc2ccc(C#N)cc2)n1 [Compound 67] | 9.0
